Patent US20230172204A1 (BASF SE, priority 2020, published 2023)

How the values were obtained:
[1] = system: Phakopsora pachyrhizi (F129L); test: Protective control of soybean rust on soybeans (PHAKPA P6); format: in vivo; details: for % PHAKPA (F129L) Disease level P6 at 4 ppm: protective P6, 4 ppm; for % PHAKPA (F129L) Disease level P6 at 4 ppm / % PHAKPA (F129L) Disease level P6 at 16 ppm: soybean rust F129L; for % PHAKPA (F129L) Disease level P6 at 16 ppm: protective P6, 16 ppm; for PHAKPA (F129L) Disease level (%) P6 at 16 ppm: P6 protective, % diseased leaf area
[2] = system: Phakopsora pachyrhizi (F129L); test: Protective control of soybean rust on soybeans (PHAKPA P2); format: in vivo; details: for % PHAKPA (F129L) Disease level P2 at 4 ppm: protective P2, 4 ppm; for % PHAKPA (F129L) Disease level P2 at 4 ppm / % PHAKPA (F129L) Disease level P2 at 16 ppm: soybean rust F129L; for % PHAKPA (F129L) Disease level P2 at 16 ppm: protective P2, 16 ppm; for PHAKPA (F129L) Disease level (%) P2 at 4 ppm / PHAKPA (F129L) Disease level (%) P2 at 16 ppm: P2 protective, % diseased leaf area

| Compound | % PHAKPA (F129L) Disease level P6 at 4 ppm [1] [%] | % PHAKPA (F129L) Disease level P6 at 16 ppm [1] [%] | % PHAKPA (F129L) Disease level P2 at 4 ppm [2] [%] | % PHAKPA (F129L) Disease level P2 at 16 ppm [2] [%] | PHAKPA (F129L) Disease level (%) P6 at 16 ppm [1] [%] | PHAKPA (F129L) Disease level (%) P2 at 4 ppm [2] [%] | PHAKPA (F129L) Disease level (%) P2 at 16 ppm [2] [%] |
| --- | --- | --- | --- | --- | --- | --- | --- |
| CNC(=O)/C(=N/OC)c1cccc(C)c1CO/N=C(\C)c1ccccc1COC [compound 277] | 100 | 100 | 100 | 60 | – | – | – |
| CO/N=C(/C(=O)OC)c1cccc(C)c1CO/N=C(\C)c1ccccc1C(C)C [compound 218] | 100 | 100 | 100 | 87 | – | – | – |
| CNC(=O)/C(=N/OC)c1cccc(C)c1CO/N=C(\C)c1cc(C)cc(C)c1 [compound 99] | 87 | 33 | 43 | 12 | – | – | – |
| CO/N=C(/C(=O)OC)c1cccc(C)c1CO/N=C(\C)c1ccc(Br)cc1 [compound 114] | 52 | 15 | 38 | 5 | – | – | – |
| CNC(=O)/C(=C/OC)c1cccc(C)c1CO/N=C(\C)c1cccc(C(F)(F)F)c1 [compound 232] | 100 | 83 | 100 | 73 | – | – | – |
| CO/N=C(/C(=O)OC)c1cccc(C)c1CO/N=C(\OC)c1cccc(C)c1 [drawing 970, reference compound] | – | – | – | – | 57 | 83 | – |
| CNC(=O)/C(=N/OC)c1cccc(C)c1CO/N=C(\C)c1cccc(OC(F)(F)F)c1 [compound 29] | – | 0 | – | 0 | – | – | – |
| CNC(=O)/C(=N/OC)c1cccc(C)c1CO/N=C(\C)c1ccc(C)c(C)c1 [compound 139] | 72 | 24 | 47 | 2 | – | – | – |
| CO/N=C(/C(=O)OC)c1cccc(C)c1CO/N=C(\C)c1ccc(Cl)c(Cl)c1C(F)(F)F [compound 429] | 67 | 43 | 83 | 50 | – | – | – |
| CNC(=O)/C(=N/OC)c1cccc(C)c1CO/N=C(\C)c1ccc(-c2ccc(F)cc2)cc1C(F)(F)F [compound 426] | 27 | 10 | 7 | 1 | – | – | – |
| CO/N=C(/C(=O)OC)c1cccc(C)c1CO/N=C(\C)c1cc(F)cc(C(F)(F)F)c1 [compound 51] | 15 | 0 | 28 | 2 | – | – | – |
| CO/N=C(/C(=O)OC)c1cccc(C)c1CO/N=C(\C)c1ccc(F)c(F)c1OC(F)(F)F [compound 447] | 33 | 1 | 7 | 0 | – | – | – |
| CO/N=C(/C(=O)OC)c1cccc(C)c1CO/N=C(\C)c1ccc(C)c(Cl)c1 [compound 163] | 47 | 9 | 20 | 1 | – | – | – |
| C#Cc1ccccc1/C(C)=N/OCc1c(C)cccc1/C(=N\OC)C(=O)NC [compound 125] | 90 | 44 | 72 | 9 | – | – | – |
| CNC(=O)/C(=N/OC)c1cccc(C)c1CO/N=C(\C)c1ccc(OC)cc1 [compound 164] | 27 | 0 | 5 | 0 | – | – | – |
| CNC(=O)/C(=N/OC)c1cccc(C)c1CO/N=C(\C)c1c(Cl)cccc1Cl [compound 173] | 97 | 17 | 100 | 53 | – | – | – |

| Compound | % PHAKPA (F129L) Disease level P6 at 4 ppm [1] [%] | % PHAKPA (F129L) Disease level P6 at 16 ppm [1] [%] | % PHAKPA (F129L) Disease level P2 at 4 ppm [2] [%] | % PHAKPA (F129L) Disease level P2 at 16 ppm [2] [%] | PHAKPA (F129L) Disease level (%) P6 at 16 ppm [1] [%] | PHAKPA (F129L) Disease level (%) P2 at 4 ppm [2] [%] | PHAKPA (F129L) Disease level (%) P2 at 16 ppm [2] [%] |
| --- | --- | --- | --- | --- | --- | --- | --- |
| CO/N=C(/C(=O)OC)c1cccc(C)c1CO/N=C(\SC)c1cccc(C)c1 [drawing 972, reference compound] | – | – | – | – | 30 | 60 | – |
| CNC(=O)/C(=N/OC)c1cccc(C)c1CO/N=C(\CC(C)C)c1cccc(C(F)(F)F)c1 [compound 235] | 87 | 77 | 100 | 73 | – | – | – |
| CNC(=O)/C(=N/OC)c1cccc(C)c1CO/N=C(\C)c1ccccc1OC [Ex. 126] | 95 | 70 | 87 | 34 | 60 | – | 32 |
| C=Cc1cccc(/C(=N\OC)C(=O)NC)c1CO/N=C(\C)c1ccccc1 [compound 400] | 8 | 0 | 2 | 0 | – | – | – |
| COC=C(C(=O)OC)c1cccc(C)c1CON=C(C)c1ccc(OC)cc1C(F)(F)F [compound 464] | 8 | 0 | 1 | 0 | – | – | – |
| CNC(=O)/C(=N/OC)c1ccccc1CO/N=C(\C)c1cccc(N2CC(F)(F)C2)c1 [reference compound] | – | – | – | – | 53 | – | 70 |
| C=Cc1cc(/C(C)=N/OCc2c(C)cccc2/C(=N\OC)C(=O)OC)cc(C(F)(F)F)c1 [compound 147] | 95 | 18 | 73 | 18 | – | – | – |
| CNC(=O)/C(=N/OC)c1cccc(C)c1CO/N=C(\C)c1cccc(C2CC2(Cl)Cl)c1 (centres unmarked) [compound 75] | 13 | 1 | 8 | 0 | – | – | – |
| CNC(=O)/C(=N/OC)c1cccc(C)c1CO/N=C(\C)c1cc(Cl)cc(Cl)c1F [compound 167] | 9 | 0 | 2 | 0 | – | – | – |
| CNC(=O)/C(=N/OC)c1ccccc1CO/N=C(\C)c1cccc(C(F)F)c1 [reference compound] | – | – | – | – | 35 | – | 16 |
| CO/C=C(/C(=O)OC)c1cccc(C)c1CO/N=C(\C)c1ccc(Cl)c(Cl)c1C(F)(F)F [compound 430] | 37 | 17 | 22 | 6 | – | – | – |
| CNC(=O)/C(=N/OC)c1cccc(C)c1CO/N=C(\C)c1ccc(OC)cc1C(F)(F)F [compound 324] | 12 | 0 | 2 | 1 | – | – | – |
| CNC(=O)/C(=N/OC)c1cccc(C)c1CO/N=C(\C)c1cc(C(F)(F)F)cc(C(F)(F)F)c1 [compound 32] | 73 | 43 | 80 | 50 | – | – | – |
| CNC(=O)/C(=N/OC)c1cccc(C)c1CO/N=C(\C)c1ccc(F)cc1Cl [compound 262] | 47 | 4 | 63 | 1 | – | – | – |
| CNC(=O)/C(=N/OC)c1cccc(C)c1CO/N=C(\C)c1c(F)cccc1F [compound 214] | 28 | 4 | 14 | 0 | – | – | – |
